Data from patent publication US20230146675A1, “PYRIMIDO[5,4-d]PYRIMIDINE DERIVATIVES AS ENT INHIBITORS FOR THE TREATMENT OF CANCERS, AND COMBINATION THEREOF WITH ADENOSINE RECEPTOR ANTAGONISTS” (ITEOS BELGIUM SA, priority 2020, published 2023).
pIC50: −log10 of the molar value.

These compounds were tested against T1, human ENT1 (Homo sapiens, UniProt Q99808) (assay: ENT1 binding assay (competition with Sahenta-DY647 on JAR cells)). Conditions: binned IC50.
T1 sequence (Q99808 1-456): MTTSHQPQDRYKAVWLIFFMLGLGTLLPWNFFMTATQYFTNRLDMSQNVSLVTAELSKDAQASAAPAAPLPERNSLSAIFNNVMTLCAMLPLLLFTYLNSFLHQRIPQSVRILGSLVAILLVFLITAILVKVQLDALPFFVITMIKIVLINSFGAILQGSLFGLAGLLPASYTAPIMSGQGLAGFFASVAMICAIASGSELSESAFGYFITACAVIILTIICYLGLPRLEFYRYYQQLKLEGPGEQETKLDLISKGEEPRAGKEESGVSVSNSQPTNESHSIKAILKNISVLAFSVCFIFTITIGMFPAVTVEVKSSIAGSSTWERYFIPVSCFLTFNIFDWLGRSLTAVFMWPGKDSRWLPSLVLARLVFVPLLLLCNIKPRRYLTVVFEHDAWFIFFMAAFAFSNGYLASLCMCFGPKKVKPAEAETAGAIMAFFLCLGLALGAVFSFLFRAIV
Design: JAR cells expressing ENT1 were bought from ATCC; host or cells: JAR cells
Method in brief: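 JAR cells were incubated with test compounds and the fluorescent ligand Sahenta-DY647 in competition. Plates were washed twice by centrifugation (4 min, 400 rcf, 4 °C). Binding potency was derived from the final fluorescence.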
`CCCN(C)c1nc(N(CCOC)CCOC)nc2c(N3CCS(=O)(=O)CC3)nc(N(CCOC)CCOC)nc12` [Compound 8, 4-(2,6-bis(bis(2-methoxyethyl)amino)-8-(methyl(propyl)amino)pyrimido[5,4-d]pyrimidin-4-yl)thiomorpholine 1,1-dioxide] gave a pIC50 of over 7.00.
`COCCN(CCOC)c1nc(N2CCC(OC)CC2)c2nc(N(CCOC)CCOC)nc(NCc3ccnc(N)c3)c2n1` [Compound 147, N4-((2-aminopyridin-4-yl)methyl)-N2,N2,N6,N6-tetrakis(2-methoxyethyl)-8-(4-methoxypiperidin-1-yl)pyrimido[5,4-d]pyrimidine-2,4,6-triamine] showed a pIC50 of 6.00 to 6.30.
Work on `COCCN(CCOC)c1nc(N2CCC(OC)CC2)c2nc(N(CCO)CCCS(C)(=O)=O)nc(N3CCN(C)C(=O)C3)c2n1` [Compound 280, 4-(6-(bis(2-methoxyethyl)amino)-2-((2-hydroxyethyl)(3-(methylsulfonyl)propyl)amino)-8-(4-methoxypiperidin-1-yl)pyrimido[5,4-d]pyrimidin-4-yl)-1-methylpiperazin-2-one] yielded a pIC50 of 6.30 to 7.00.
`COCCN(CCOC)c1nc(N2CCC(OC)CC2)c2nc(N(CCOC)CCOC)nc(NCc3cccc(OC(F)F)c3)c2n1` [Compound 144, N4-(3-(difluoromethoxy)benzyl)-N2,N2,N6,N6-tetrakis(2-methoxyethyl)-8-(4-methoxypiperidin-1-yl)pyrimido[5,4-d]pyrimidine-2,4,6-triamine] was tested, and the pIC50 was 6.30 to 7.00.
With `CCOCCN(CCOCC)c1nc(N2CCN(C)C(=O)C2)c2nc(N(CCOCC)CCOCC)nc(N3CCC(OC)CC3)c2n1` [Compound 199, 4-(2,6-bis(bis(2-ethoxyethyl)amino)-8-(4-methoxypiperidin-1-yl)pyrimido[5,4-d]pyrimidin-4-yl)-1-methylpiperazin-2-one] the pIC50 was over 7.00.
Compound `COCCN(CCOC)c1nc(N2CCC(C(N)=O)CC2)c2nc(N(CCOC)CCOC)nc(N3CCC(OC)CC3)c2n1` [Compound 75, 1-(2,6-bis(bis(2-methoxyethyl)amino)-8-(4-methoxypiperidin-1-yl)pyrimido[5,4-d]pyrimidin-4-yl)piperidine-4-carboxamide] has a pIC50 of 6.30 to 7.00.
In the case of `COCCN(CCOC)c1nc(N2CCC(OC)CC2)c2nc(N(CCO)CCN(C)C(C)=O)nc(N3CCN(C)C(=O)C3)c2n1` [Compound 277, N-(2-((6-(bis(2-methoxyethyl)amino)-8-(4-methoxypiperidin-1-yl)-4-(4-methyl-3-oxopiperazin-1-yl)pyrimido[5,4-d]pyrimidin-2-yl)(2-hydroxyethyl)amino)ethyl)-N-methylacetamide], the pIC50 was 6.30 to 7.00.
Compound `COCCN(CCOC)c1nc(N2CCc3c(cnn3C)C2)c2nc(N(CCOC)CCOC)nc(N3CCN(C)C(=O)C3)c2n1` [Compound 255, 4-(2,6-bis(bis(2-methoxyethyl)amino)-8-(1-methyl-1,4,6,7-tetrahydro-5H-pyrazolo[4,3-c]pyridin-5-yl)pyrimido[5,4-d]pyrimidin-4-yl)-1-methylpiperazin-2-one] has a pIC50 of over 7.00.
`COCCN(CCOC)c1nc(N2CCC(OC)CC2)c2nc(N(CCOC)CCOC)nc(NC3CCCC3)c2n1` [Compound 167, N4-cyclopentyl-N2,N2,N6,N6-tetrakis(2-methoxyethyl)-8-(4-methoxypiperidin-1-yl)pyrimido[5,4-d]pyrimidine-2,4,6-triamine] was tested, and the pIC50 was 6.30 to 7.00.
`COCCN(CCOC)c1nc(N2CCn3nc(C)nc3C2)c2nc(N(CCOC)CCOC)nc(N3CCN(C)C(=O)C3)c2n1` [Compound 301, 4-(2,6-bis(bis(2-methoxyethyl)amino)-8-(2-methyl-5,6-dihydro-[1,2,4]triazolo[1,5-a]pyrazin-7(8H)-yl)pyrimido[5,4-d]pyrimidin-4-yl)-1-methylpiperazin-2-one] was tested, and the pIC50 was over 7.00.
Compound `COCCN(CCOC)c1nc(N2CCC(OC)CC2)c2nc(N(CCOC)CCOC)nc(NCc3ccc(C#N)cc3)c2n1` [Compound 140, 4-(((2,6-bis(bis(2-methoxyethyl)amino)-8-(4-methoxypiperidin-1-yl)pyrimido[5,4-d]pyrimidin-4-yl)amino)methyl)benzonitrile] has a pIC50 of 6.30 to 7.00.
`COCCN(CCOC)c1nc(N2CCC(OC)CC2)c2nc(N(CCOC)CCOC)nc(NCCc3ccncc3)c2n1` [Compound 64, N2,N2,N6,N6-tetrakis(2-methoxyethyl)-8-(4-methoxypiperidin-1-yl)-N4-(2-(pyridin-4-yl)ethyl)pyrimido[5,4-d]pyrimidine-2,4,6-triamine] gave a pIC50 of 6.30 to 7.00.
In the case of `COCCN(CCOC)c1nc(N2CCC(OC)CC2)c2nc(N(CCOC)CCOC)nc(NCc3ccncc3)c2n1` [Compound 61, N2,N2,N6,N6-tetrakis(2-methoxyethyl)-8-(4-methoxypiperidin-1-yl)-N4-(pyridin-4-ylmethyl)pyrimido[5,4-d]pyrimidine-2,4,6-triamine], the pIC50 was 6.00 to 6.30.
`COCCN(CCOC)c1nc(N2CCC(OC)CC2)c2nc(N(CCOC)CCOC)nc(OCc3cc(OC)cc(OC)c3)c2n1` [Compound 152, 4-((3,5-dimethoxybenzyl)oxy)-N2,N2,N6,N6-tetrakis(2-methoxyethyl)-8-(4-methoxypiperidin-1-yl)pyrimido[5,4-d]pyrimidine-2,6-diamine] gave a pIC50 of over 7.00.
Work on `COCCN(CCOC)c1nc(N2CCN(c3ncn(C)n3)CC2)c2nc(N(CCOC)CCOC)nc(N(C)Cc3cccc(C#N)c3)c2n1` [Compound 244, 3-(((2,6-bis(bis(2-methoxyethyl)amino)-8-(4-(1-methyl-1H-1,2,4-triazol-3-yl)piperazin-1-yl)pyrimido[5,4-d]pyrimidin-4-yl)(methyl)amino)methyl)benzonitrile] yielded a pIC50 of 6.30 to 7.00.
`COC1CCN(c2nc(N(CCOC(C)=O)CCOC(C)=O)nc3c(N4CCC(OC)CC4)nc(N(CCOC(C)=O)CCOC(C)=O)nc23)CC1` [Compound 15, ((4,8-bis(4-methoxypiperidin-1-yl)pyrimido[5,4-d]pyrimidine-2,6-diyl)bis(azanetriyl))tetrakis(ethane-2,1-diyl)tetraacetate] was tested, and the pIC50 was over 7.00.
`COCCN(CCOC)c1nc(N2CCCN(C(C)=O)CC2)c2nc(N(CCOC)CCOC)nc(N3CCC(OC)CC3)c2n1` [Compound 98, 1-(4-(2,6-bis(bis(2-methoxyethyl)amino)-8-(4-methoxypiperidin-1-yl)pyrimido[5,4-d]pyrimidin-4-yl)-1,4-diazepan-1-yl)ethanone] showed a pIC50 of 6.30 to 7.00.
Work on `COCCN(CCOC)c1nc(N2CCN(C)C(=O)C2)c2nc(N(CCOC)CCOC)nc(NCc3ccccc3)c2n1` [Compound 190, 4-(8-(benzylamino)-2,6-bis(bis(2-methoxyethyl)amino)pyrimido[5,4-d]pyrimidin-4-yl)-1-methylpiperazin-2-one] yielded a pIC50 of over 7.00.
For `COCCN(CCOC)c1nc(N2CCN(C)C(=O)C2)c2nc(N(CCOC)CCOC)nc(NCc3ccc(F)c(C#N)c3)c2n1` [Compound 211, 5-(((2,6-bis(bis(2-methoxyethyl)amino)-8-(4-methyl-3-oxopiperazin-1-yl)pyrimido[5,4-d]pyrimidin-4-yl)amino)methyl)-2-fluorobenzonitrile], the pIC50 was over 7.00.
`COCCN(CCOC)c1nc(N2CCC(S(C)(=O)=O)CC2)c2nc(N(CCOC)CCOC)nc(N3CCC(OC)CC3)c2n1` [Compound 78, N2,N2,N6,N6-tetrakis(2-methoxyethyl)-4-(4-methoxypiperidin-1-yl)-8-(4-(methylsulfonyl)piperidin-1-yl)pyrimido[5,4-d]pyrimidine-2,6-diamine] showed a pIC50 of 6.00 to 6.30.
`COCCN(CCOC)c1nc(N2CCC(OC)CC2)c2nc(N(CCOC)CCOC)nc(NCCCO)c2n1` [Compound 175, 3-((2,6-bis(bis(2-methoxyethyl)amino)-8-(4-methoxypiperidin-1-yl)pyrimido[5,4-d]pyrimidin-4-yl)amino)propan-1-ol] was tested, and the pIC50 was 6.00 to 6.30.
`CCOC(=O)C1CCN(c2nc(N(CCOC)CCOC)nc3c(N4CCC(C(=O)OCC)CC4)nc(N(CCOC)CCOC)nc23)CC1` [Compound 3, diethyl 1,1′-(2,6-bis(bis(2-methoxyethyl)amino)pyrimido[5,4-d]pyrimidine-4,8-diyl)bis(piperidine-4-carboxylate)] gave a pIC50 of 6.30 to 7.00.
Compound `COCCN(CCOC)c1nc(N2CCn3nncc3C2)c2nc(N(CCOC)CCOC)nc(N3CCN(C)C(=O)C3)c2n1` [Compound 251, 4-(2,6-bis(bis(2-methoxyethyl)amino)-8-(6,7-dihydro-[1,2,3]triazolo[1,5-a]pyrazin-5(4H)-yl)pyrimido[5,4-d]pyrimidin-4-yl)-1-methylpiperazin-2-one] has a pIC50 of 6.30 to 7.00.
Work on `CCOCCN(CCOCC)c1nc(N2CCN(C)C(=O)C2)c2nc(N(CCOCC)CCOCC)nc(N(C)Cc3ccccc3)c2n1` [Compound 232, 4-(8-(benzyl(methyl)amino)-2,6-bis(bis(2-ethoxyethyl)amino)pyrimido[5,4-d]pyrimidin-4-yl)-1-methylpiperazin-2-one] yielded a pIC50 of over 7.00.
Work on `COCCN(CCOC)c1nc(N2CCC(OC)CC2)c2nc(N(CCOC)CCOC)nc(N(C)CCO)c2n1` [Compound 112, 2-((2,6-bis(bis(2-methoxyethyl)amino)-8-(4-methoxypiperidin-1-yl)pyrimido[5,4-d]pyrimidin-4-yl)(methyl)amino)ethanol] yielded a pIC50 of 6.30 to 7.00.
Work on `COCCN(CCOC)c1nc(N2CCC(OC)CC2)c2nc(N(CCO)CCO)nc(N3CCc4oc(C)nc4C3)c2n1` [Compound 322, 2,2′-((6-(bis(2-methoxyethyl)amino)-8-(4-methoxypiperidin-1-yl)-4-(2-methyl-6,7-dihydrooxazolo[4,5-c]pyridin-5(4H)-yl)pyrimido[5,4-d]pyrimidin-2-yl)azanediyl)bis(ethan-1-ol)] yielded a pIC50 of 6.30 to 7.00.
